From patent US10676780B2, “Stabilisation and isolation of extracellular nucleic acids” (QIAGEN GmbH, priority 2011, dated 2020)
pEC50, pIC50, pKd, pKi: −log10 of the molar value. Where a SMILES comes first, the peptide text is derived from it. The star is where a group is joined. Cbz = O=C(OCc1ccccc1)*; CH2Cl = ClC*; CH2F = FC*

Key:
anthrax lethal factor = anthrax lethal factor (Bacillus anthracis, UniProt P15917); details: cited from earlier work
MCF7 breast cancer cells = details: at 20 μM; cited from earlier work
mitochondrial division = details: cited from earlier work
[1] = neuron culture medium at 37° C.; cited from earlier work
[2] = system: etoposide-induced cortical neuron death; details: cited from earlier work; for pEC50: read-out: ED50 (the source's name)
[3] = administered in rats in vivo; cited from earlier work
whole blood samples [4] = assay: ribosomal 18S DNA duplex real time PCR: increase of DNA in plasma of stored whole blood; assay type: cell-based, human; details: for increase of genomic DNA in the plasma (18S DNA duplex assay) / x-fold increase of ribosomal 18S DNA in plasma: within 7 days of storage at RT; for x-fold increase of ribosomal 18S DNA in plasma: 20 μM in 10 ml blood
Description: (§1) A test system was designed, wherein cell-containing biological samples, here whole blood samples, were incubated at room temperature (RT) for up to 6 or 7 days. Therein, the sample stabilizing properties of the additives of the present invention were tested on day 0, day 3 and day 6/7 the samples.
(§2) The circulating, extracellular nucleic acids were purified from the obtained plasma samples using the QIAamp® Circulating NA Kit (according to the handbook). In brief: • 10 ml sample input; • lysis: 1 ml Proteinase K and 8 ml Buffer ACL (QIAGEN) • binding: 18 ml Buffer ACB (QIAGEN) • wash-steps: unchanged and according to handbook • elution in 60 μl Buffer AVE (QIAGEN) 4. Analysis of the Eluates
4.2. DNA quantification with a real time PCR assay, sensitive for DNA degradation (target: 500 and 66 bp long ribosomal 18S DNA coding sequences).
(samples were diluted 1:10 before amplification)
Detection of ribosomal 18S DNA by quantitative real-time PCR, makes it possible to calculate the x-fold increase of DNA from day 0 to day 3 or 7 (calculation: division of day 3 (or 7) copies by day 0 copies).
The division of short amplicon copy number by long amplicon copy number (66 by/500 bp) indicates whether the amount of detected short or long amplicons changes over time in a similar way. A decrease of this ratio implies a stronger release of longer rather than of shorter DNA molecules and can be interpreted as release of high molecular weight genomic DNA from blood cells.
On day 0, day 3 and day 6, replicates were processed as follows. […] The collected plasma was centrifuged at 16,000×g for 10 minutes at 4° C. The cleared plasma fraction was collected and the extracellular nucleic acids were isolated using the QIAamp Circulating nucleic acid kit (1 ml input material, 60 μl elution volume). […] Values that are close to 1 imply preserved levels of ccfDNA. The higher the value, the less stabilization is achieved.

whole blood samples [5] = assay: DNA size distribution by chip gel electrophoresis of DNA isolated from plasma of stored whole blood; assay type: cell-based; details: for genomic DNA release/fragmentation: day 7, RT; for ladder-like pattern of DNA bands (release/fragmentation of genomic DNA): 20 μM end concentration in 10 ml blood, stored at RT, day 3 and day 7, vs DMSO control and K2E blood
Description: as §1, with “samples. The samples were processed according to the following protocols, where applicable (for details, see also the specific examples in the results section):” for “samples.”
To separate the blood plasma from the whole blood, the blood samples were centrifuged for 15 min at 5000 rpm, and the obtained plasma samples were again centrifuged for 10 min at 16.000×g at 4° C.
as §2
4.1. Measurement of the blood cell stability/DNA release by the determination of DNA size distribution using a chip gel electrophoresis (2100 Bioanalyzer; Agilent Technologies; Inc., USA) according to manufacturer's instruction (see handbook Agilent DNA 7500 and DNA 12000 Kit Guide), but 1.5 μl instead of 1 μl sample were transferred to the wells.
The eluted circulating cell-free DNA was separated by size using chip gel electrophoresis (for details on the method see above, I, 4.1). […] The DMSO control and the K2E blood (not treated according to the teachings of the present invention) show the same ladder-like pattern of bands. This pattern occurs in samples where apoptosis takes place. During apoptosis, endonucleases degrade genomic DNA at inter-nucleosomal linker regions and produce DNA fragments of circa 180 bp or multiples of 180 bp. Thus, apoptosis occurs in samples which show a clear ladder-like pattern. Furthermore, the strength (darkness) of the pattern is decisive. The darker the bands, the more genomic DNA was released from the cells and thus contaminates the extracellular nucleic acid population.

caspase-8 = caspase-8 (Homo sapiens, UniProt Q14790); details: cited from earlier work
[6] = target: T1, human recombinant caspase-1 (Homo sapiens, UniProt P29466); details: cited from earlier work
T1 sequence (P29466 120-404): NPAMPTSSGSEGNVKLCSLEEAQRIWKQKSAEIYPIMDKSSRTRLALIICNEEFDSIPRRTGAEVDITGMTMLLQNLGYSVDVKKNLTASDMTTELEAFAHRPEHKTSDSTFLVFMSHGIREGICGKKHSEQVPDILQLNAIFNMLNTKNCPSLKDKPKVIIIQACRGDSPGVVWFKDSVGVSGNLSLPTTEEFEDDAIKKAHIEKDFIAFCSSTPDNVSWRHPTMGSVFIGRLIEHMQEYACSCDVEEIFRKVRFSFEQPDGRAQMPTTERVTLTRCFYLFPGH

fragmentin 2 = target: T2, fragmentin 2 (Rattus norvegicus, UniProt P18291); details: read-out: ID50 (the source's name); cited from earlier work
T2 sequence (P18291 21-248): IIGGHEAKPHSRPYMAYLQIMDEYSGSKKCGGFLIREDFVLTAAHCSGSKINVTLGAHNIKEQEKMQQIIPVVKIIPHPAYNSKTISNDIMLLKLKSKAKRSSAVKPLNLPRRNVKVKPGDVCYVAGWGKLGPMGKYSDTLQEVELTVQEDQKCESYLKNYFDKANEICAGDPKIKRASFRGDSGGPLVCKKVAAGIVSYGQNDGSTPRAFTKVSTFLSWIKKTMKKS

Bax-mediated apoptosis = details: cited from earlier work
[7] = target: Bax (Bcl-2-associated X protein) (Homo sapiens, UniProt Q07812); details: cited from earlier work
Chain of Bax (Bcl-2-associated X protein) (Q07812 whole entry): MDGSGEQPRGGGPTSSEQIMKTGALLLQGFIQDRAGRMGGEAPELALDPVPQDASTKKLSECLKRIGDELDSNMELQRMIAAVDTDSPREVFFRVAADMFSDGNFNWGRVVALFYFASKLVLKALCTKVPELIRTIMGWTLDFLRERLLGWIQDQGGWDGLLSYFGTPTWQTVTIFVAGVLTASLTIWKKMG

Chain of caspase-8 (Q14790 217-479, species assumed): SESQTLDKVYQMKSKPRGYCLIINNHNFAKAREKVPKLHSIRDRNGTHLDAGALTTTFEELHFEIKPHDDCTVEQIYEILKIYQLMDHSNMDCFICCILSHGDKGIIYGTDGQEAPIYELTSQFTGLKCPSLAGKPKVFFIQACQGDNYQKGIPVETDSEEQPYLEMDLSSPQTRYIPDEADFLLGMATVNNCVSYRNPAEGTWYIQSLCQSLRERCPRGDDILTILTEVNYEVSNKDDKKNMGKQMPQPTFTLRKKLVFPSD
Chain of anthrax lethal factor (P15917 34-809 limits assumed): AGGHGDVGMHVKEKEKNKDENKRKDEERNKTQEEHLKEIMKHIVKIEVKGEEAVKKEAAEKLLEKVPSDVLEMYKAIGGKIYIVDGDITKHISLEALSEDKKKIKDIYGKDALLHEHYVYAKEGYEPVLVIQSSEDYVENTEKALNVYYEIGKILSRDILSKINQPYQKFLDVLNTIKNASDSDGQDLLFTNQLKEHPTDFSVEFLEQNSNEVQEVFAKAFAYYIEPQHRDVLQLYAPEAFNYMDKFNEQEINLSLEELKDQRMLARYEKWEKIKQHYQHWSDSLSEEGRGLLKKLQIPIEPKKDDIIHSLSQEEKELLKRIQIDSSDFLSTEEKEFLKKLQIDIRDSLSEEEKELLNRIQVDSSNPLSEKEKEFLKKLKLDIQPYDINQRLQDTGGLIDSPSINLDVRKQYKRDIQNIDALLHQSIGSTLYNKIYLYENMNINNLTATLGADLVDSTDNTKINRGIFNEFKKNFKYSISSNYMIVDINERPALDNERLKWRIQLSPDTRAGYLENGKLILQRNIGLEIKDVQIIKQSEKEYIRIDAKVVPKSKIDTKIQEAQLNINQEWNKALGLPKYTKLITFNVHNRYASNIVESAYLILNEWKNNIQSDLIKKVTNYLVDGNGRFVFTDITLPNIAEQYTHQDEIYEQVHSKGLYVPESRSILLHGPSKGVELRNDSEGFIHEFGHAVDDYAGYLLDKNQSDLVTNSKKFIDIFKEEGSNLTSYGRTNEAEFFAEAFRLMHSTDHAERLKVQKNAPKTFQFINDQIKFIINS

In the case of `FC(F)(F)c1cccc(-c2csc(C3COc4ccccc4O3)n2)c1` (stereo not drawn) [Caspase Inhibitor X], the effect on activity (anthrax lethal factor) is given as “assisted cleavage of BID, a proapoptotic protein. Weakly affects”.

In the case of `O=C(C=Cc1ccc(C=CC(=O)Nc2ccc(C3=NCCN3)cc2)cc1)Nc1ccc(C2=NCCN2)cc1` [GW 4869], the “protection against cell death” value (MCF7 breast cancer cells) is given as “specific PLC. Reported to offer complete protection against TNF-α”.

In the case of `COc1cc(-n2c(=S)[nH]c3ccccc3c2=O)c(Cl)cc1Cl` [Mdivi-1, 3-(2,4-Dichloro-5-methoxyphenyl)-2,3-dihydro-2-thioxo-4(1H)-quinazolinone], the pIC50 (mitochondrial division) is listed as roughly 5.00.

For `O=[N+]([O-])c1ccc(-c2cn3c4c(sc3n2)CCCC4)cc1` [Pifithrin-α, p-Nitro, Cyclic], the “half-life longer than Pifithrin-α” value [1] is listed as 50%, the “potency relative to Pifithrin-α” value [2] is listed as “A cell-permeable p53 inhibitor that exhibits 10-fold higher potency” and the pEC50 [2] is listed as 7.52.

In the case of `N=c1sc2c(n1CC(=O)c1ccc([N+](=O)[O-])cc1)CCCC2` [Pifithrin-α, p-Nitro], the “potency relative to Pifithrin-α” value [3] is given as 100-fold more potent than Pifithrin-α when adminstered in rats in and the pEC50 [2] is given as 6.52.

With `CC(C)C(NC(=O)c1ccc2ccccc2n1)C(=O)NC(CC(=O)O)C(=O)COc1c(F)cccc1F` (stereo not drawn) [Q-VD-OPh, Quinoline-Val-Asp-CH2-OPH] the “increase of genomic DNA in the plasma (18S DNA duplex assay)” value (whole blood samples [4]; 1 μM in combination with 21 mM glucose) was “only a minor increase of genomic DNA”, the “increase of genomic DNA in the plasma (18S DNA duplex assay)” value (whole blood samples [4]; 4 μM in combination with 21 mM glucose) was no more than 4 fold and the “x-fold increase of ribosomal 18S DNA in plasma” value (whole blood samples [4]) was “reduced increase of DNA”. For the same molecule, the “genomic DNA release/fragmentation” value (whole blood samples [5]; 1 μM caspase inhibitor with 21.4 mM glucose) was “significantly reduced the genomic DNA release/fragmentation”, the “genomic DNA release/fragmentation” value (whole blood samples [5]; 4 μM caspase inhibitor with 21.4 mM glucose, compared with 1 μM) was “improved” and the “ladder-like pattern of DNA bands (release/fragmentation of genomic DNA)” value (whole blood samples [5]) was “significantly reduced ladder-like patterns”.

For `COC(=O)C[C@H](NC(=O)[C@H](C)NC(=O)[C@@H](NC(=O)OCc1ccccc1)C(C)C)C(=O)CF` [Z-Val-Ala-Asp(OMe)-FMK] (Cbz-Val-Ala-Asp(OMe)-CH2F), the “x-fold increase of ribosomal 18S DNA in plasma” value (whole blood samples [4]) was “more prominent on day 7” and the “ladder-like pattern of DNA bands (release/fragmentation of genomic DNA)” value (whole blood samples [5]) was “reduced ladder-like pattern”.

With `O[C@H]1[C@H](O)[C@@H](O)[C@H](O)[C@@H](O)[C@H]1O` [inositol, Cyclohexane-1,2,3,4,5,6-geksol] the “relative change of ccfDNA level (day X copies/day 0 copies)” value (whole blood samples [4]; concentrations of for example 0.05 M, room temperature up to six days) was “suitable alternatives”.

In the case of `OC[C@@H](O)[C@@H](O[C@H]1O[C@H](CO)[C@@H](O)[C@H](O)[C@H]1O)[C@H](O)[C@@H](O)CO` [maltitol, 4-O-α-D-Glucopyranosyl-D-glucitol], the “relative change of ccfDNA level (day X copies/day 0 copies)” value (whole blood samples [4]; concentrations ≤0.01M, room temperature up to six days) was “suitable alternatives”.

For `OCC(O)C(O)C(O)C(O)CO` (stereo not drawn) [mannitol, Hexane-1,2,3,4,5,6-hexol], the “relative change of ccfDNA level (day X copies/day 0 copies)” value (whole blood samples [4]; 0.1, 0.05, 0.01 M tested, room temperature) was “stabilization effects over 3 days”.

For Ac-IETD-aldehyde, the pKi (caspase-8) is listed as 9.00.

For “Ac-Tyr-Val-Ala-Asp-CHO [Caspase-1 Inhibitor I]”, the pKi [6] is given as 9.70.

For “Cbz-Ala-Ala-Asp-CH2Cl [Granzyme B Inhibitor I]”, the pIC50 (fragmentin 2) is given as 6.52.

In the case of “H-Val-Pro-Met-Leu-Lys-OH (H-VPMLK-OH) [Bax-Inhibiting Peptide, V5]”, the “effective concentration for Bax-mediated apoptosis” value (Bax-mediated apoptosis) is listed as “mediated apoptosis (~50-200 μM). Also effectively blocks caspase-”.

For “Humanin, Human, Synthetic: A 24-residue anti-apoptotic peptide”, the pKd [7] is listed as roughly 8.70.
